# Test results as given in PMC4389257, “Structural basis for full-spectrum inhibition of translational functions on a tRNA synthetase” (Nature Communications, 2015).
# Target: T1, human threonyl-tRNA synthetase (ThrRS) (Homo sapiens, UniProt P26639)
# T1 construct: gene TARS1
# T1 sequence (P26639 322-723): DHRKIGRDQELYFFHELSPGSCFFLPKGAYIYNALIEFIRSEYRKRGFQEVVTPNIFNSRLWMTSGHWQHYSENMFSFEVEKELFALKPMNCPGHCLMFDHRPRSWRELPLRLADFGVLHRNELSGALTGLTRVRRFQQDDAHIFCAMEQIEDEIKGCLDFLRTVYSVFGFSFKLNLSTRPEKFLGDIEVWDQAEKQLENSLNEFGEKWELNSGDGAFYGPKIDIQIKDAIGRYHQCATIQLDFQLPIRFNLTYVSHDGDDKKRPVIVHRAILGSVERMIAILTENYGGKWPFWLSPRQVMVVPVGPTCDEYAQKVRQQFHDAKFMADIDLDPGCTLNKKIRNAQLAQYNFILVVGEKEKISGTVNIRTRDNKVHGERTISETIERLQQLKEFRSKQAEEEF
# Assay: X-ray co-crystal structure ([…] Å); aminoacylation assay Ki
# Format: biochemical
smiles,measurement,value
"C[C@@H]1C[C@H](C)C[C@H](C)[C@@H](O)CC(=O)O[C@H]([C@@H]2CCC[C@H]2C(=O)O)C/C=C/C=C(/C#N)[C@H](O)[C@@H](C)C1 [BN, Borrelidin]",Ki,~7 nM
